This experiment has as its target T1, human GLP-1R receptor (Homo sapiens, UniProt P43220).
T1 construct: expressed in transfected cells
The experiment is described as follows: GLP-1R low expression cell assay (cAMP TR-FRET, CHO-K1_hGLP-1Rlow_clone10 cells). The experiment is classed as cell-based. Conditions: for EC50: cAMP TR-FRET, 30 min at 25° C.; for Emax / GLP-1R Low Expression Cell Assay Emax (%): maximum activation relative to control GLP-1 peptide agonist. Put shortly:
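CHO-K1 cells stably expressing low surface human GLP-1R (clone10), 1,000 cells/well, exposed to 10-point 3-fold compound dilutions for 30 min at 25 °C. cAMP measured by TR-FRET (Eu-cAMP tracer/ULight-anti-cAMP, 15 min). EC50 from Hill fit of duplicate percent activation relative to a parallel GLP-1 control agonist.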
Background: In TR-FRET formats the signal depends on donor and acceptor labels being close together.

Some results are limits rather than exact numbers.

Experimental findings from patent US20240368120A1 (Terns Pharmaceuticals, Inc., priority 2023, published 2024) are described below.

T1 sequence (P43220 24-463): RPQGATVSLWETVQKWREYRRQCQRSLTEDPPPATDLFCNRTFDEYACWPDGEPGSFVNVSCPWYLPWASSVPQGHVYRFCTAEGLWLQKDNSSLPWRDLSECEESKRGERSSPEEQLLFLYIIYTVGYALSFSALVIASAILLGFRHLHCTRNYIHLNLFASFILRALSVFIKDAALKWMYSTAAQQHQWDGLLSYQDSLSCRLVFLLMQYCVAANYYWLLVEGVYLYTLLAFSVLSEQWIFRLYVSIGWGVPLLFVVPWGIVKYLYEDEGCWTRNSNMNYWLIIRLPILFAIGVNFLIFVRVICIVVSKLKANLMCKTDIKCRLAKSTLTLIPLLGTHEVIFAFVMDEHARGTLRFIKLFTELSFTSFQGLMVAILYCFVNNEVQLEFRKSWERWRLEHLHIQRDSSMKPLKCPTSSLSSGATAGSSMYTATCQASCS

Regarding `CCOc1cc(CC(=O)O)cc2c1nc(CN1CCC(c3cccc(OCc4ccc(C#N)cc4F)n3)CC1)n2C` [Compound 259, 2-(2-((4-(6-((4-Cyano-2-fluorobenzyl)oxy)pyridin-2-yl)piperidin-1-yl)methyl)-4-ethoxy-1-methyl-1H-benzo[d]imidazol-6-yl) acetic acid], the EC50 was in the range of 100 to 1000 nM and the Emax is greater than 85%. The corresponding values for `Cn1c(CN2CCC(c3cccc(OCc4ccc(C(F)(F)F)cc4F)n3)CC2)nc2c(OC(F)F)cc(C(=O)O)cc21` [Compound 223] are 10 to 100 nM and greater than 85%. The corresponding values for `CCOc1cc(C(=O)O)cc2c1nc(Cc1ccc(-c3cccc(OCc4ccc(C#N)cc4F)n3)cc1F)n2C` [Compound 293, 2-(4-(6-((4-Cyano-2-fluorobenzyl)oxy)pyridin-2-yl)-2-fluorobenzyl)-4-ethoxy-1-methyl-1H-benzo[d]imidazole-6-carboxylic acid] are less than 10 nM and greater than 85%. The corresponding values for `Cn1c(CN2CCC(c3cccc(OCc4c(F)cc(Cl)cc4F)n3)CC2)nc2c(OC(F)F)cc(C(=O)O)cc21` [Compound 153, 2-((4-(6-((4-Chloro-2,6-difluorobenzyl)oxy)pyridin-2-yl)piperidin-1-yl)methyl)-4-(difluoromethoxy)-1-methyl-1H-benzo[d]imidazole-6-carboxylic acid] are 10 to 100 nM and greater than 85%. `O=C(O)c1cc(OCF)c2nc(CN3CCC(c4cccc(OCc5ccc(Cl)cc5F)n4)CC3)n(CF)c2c1` [Compound 346, 2-((4-(6-((4-Chloro-2-fluorobenzyl)oxy)pyridin-2-yl)piperidin-1-yl)methyl)-4-(fluoromethoxy)-1-(fluoromethyl)-1H-benzo[d]imidazole-6-carboxylic acid] returned an EC50 of 10 to 100 nM and an Emax greater than 85%. The corresponding values for `CN(c1nc2c(OC(F)F)cc(C(=O)O)cc2n1C[C@@H]1CCO1)[C@H]1CC[C@H](c2cccc(OCc3ccc(C#N)cc3F)n2)CC1` [Compound 132, 2-(((1r,4S)-4-(6-((4-cyano-2-fluorobenzyl)oxy)pyridin-2-yl)cyclohexyl) (methyl)amino)-4-(difluoromethoxy)-1-(((S)-oxetan-2-yl)methyl)-1H-benzo[d]imidazole-6-carboxylic acid] are less than 10 nM and greater than 85%. The corresponding values for `COCCc1nc(C(=O)O)cc2c1nc(CN1CCC(c3cccc(OCc4ccc(C#N)cc4F)n3)CC1)n2C` [Compound 107, 2-((4-(6-((4-cyano-2-fluorobenzyl)oxy)pyridin-2-yl)piperidin-1-yl)methyl)-4-(2-methoxyethyl)-1-methyl-1H-imidazo[4,5-c]pyridine-6-carboxylic acid] are greater than 1000 nM and 50 to 85%. The corresponding values for `C[C@]1(c2ccc(Cl)cn2)Oc2cccc(C3CCN(Cc4nc5cc(C(=O)O)c6c(c5n4C[C@@H]4CCO4)OCCO6)CC3)c2O1` [Compound 99, 2-((4-((S)-2-(5-Chloropyridin-2-yl)-2-methylbenzo[d][1,3]dioxol-4-yl)piperidin-1-yl)methyl)-1-(((S)-oxetan-2-yl)methyl)-7,8-dihydro-1H-[1,4]dioxino[2′,3′:3,4]benzo[1,2-d]imidazole-5-carboxylic acid] are greater than 1000 nM and greater than 85%.

As for `COc1cc(C#CC(=O)O)cc2c1nc(CN1CCC(c3cccc(OCc4ccc(Cl)cc4F)n3)CC1)n2C[C@@H]1CCO1` [Compound 257, (S)-3-(2-((4-(6-((4-Chloro-2-fluorobenzyl)oxy)pyridin-2-yl)piperidin-1-yl)methyl)-4-methoxy-1-(oxetan-2-ylmethyl)-1H-benzo[d]imidazol-6-yl) propiolic acid], the EC50 was 10 to 100 nM and the Emax fell in the range of 50 to 85%. Take `Cn1c(CN2CCC(c3cccc(COc4ccc(C#N)cc4F)n3)CC2)nc2c(OC(F)F)cc(C(=O)O)cc21` [Compound 130, 2-((4-(6-((4-Cyano-2-fluorophenoxy)methyl)pyridin-2-yl)piperidin-1-yl)methyl)-4-(difluoromethoxy)-1-methyl-1H-benzo[d]imidazole-6-carboxylic acid]: the EC50 is greater than 1000 nM and the maximum response (Emax) fell in the range of 25 to 50%. Compound `Cn1c(Cc2ccc(-c3cccc(OCc4ccc(Cl)cc4F)n3)cc2F)nc2c(OC(F)F)cc(C(=O)O)cc21` [Compound 198, 2-(4-(6-((4-Chloro-2-fluorobenzyl)oxy)pyridin-2-yl)-2-fluorobenzyl)-4-(difluoromethoxy)-1-methyl-1H-benzo[d]imidazole-6-carboxylic acid] yielded a concentration giving a half-maximal response (EC50) of 10 to 100 nM and an Emax greater than 85%. For `N#Cc1ccc(COc2cccc(C3CCN(Cc4nc5c(O)cc(C(=O)O)cc5n4Cc4cncs4)CC3)n2)c(F)c1` [Compound 82, 2-((4-(6-((4-Cyano-2-fluorobenzyl)oxy)pyridin-2-yl)piperidin-1-yl)methyl)-4-hydroxy-1-(thiazol-5-ylmethyl)-1H-benzo[d]imidazole-6-carboxylic acid] the same measures were less than 10 nM and greater than 85%. `CC(Oc1ccccc1C1CCN(Cc2nc3c(OC(F)F)cc(C(=O)O)cc3n2C)CC1)c1ccc(C#N)cc1F` (single isomer, unassigned) [Compound 174] had an EC50 greater than 1000 nM and an Emax of less than 25%.

Turning to `Cn1c(CN2CCC(c3cccc(OCc4ccc(C5CCCO5)cc4F)n3)CC2)nc2c(OC(F)F)cc(C(=O)O)cc21` (stereo not drawn) [Compound 177, 4-(Difluoromethoxy)-2-((4-(6-((2-fluoro-4-(tetrahydrofuran-2-yl)benzyl)oxy)pyridin-2-yl)piperidin-1-yl)methyl)-1-methyl-1H-benzo[d]imidazole-6-carboxylic acid], the EC50 was greater than 1000 nM and the Emax lay within 50 to 85%. As to `Cn1c(CN2CCC(c3cccc(OCc4ccc(Cl)cc4F)n3)CC2)nc2c(OC(F)F)cc(C(=O)O)nc21` [Compound 328, 2-((4-(6-((4-Chloro-2-fluorobenzyl)oxy)pyridin-2-yl)piperidin-1-yl)methyl)-7-(difluoromethoxy)-3-methyl-3H-imidazo[4,5-b]pyridine-5-carboxylic acid], the EC50 fell in the range of 10 to 100 nM and the maximal response (Emax) was greater than 85%.

With `CCC(F)Oc1cc(C(=O)O)cc2c1nc(CN1CCC(c3cccc(OCc4ccc(Cl)cc4F)n3)CC1)n2C` (stereo not drawn) [Compound 351, 2-((4-(6-((4-Chloro-2-fluorobenzyl)oxy)pyridin-2-yl)piperidin-1-yl)methyl)-4-(1-fluoropropoxy)-1-methyl-1H-benzo[d]imidazole-6-carboxylic acid], the EC50 is 10 to 100 nM and the Emax is greater than 85%. Consider `N#Cc1ccc(COc2cccc(C3CCN(Cc4nc5ccc(C(=O)O)c(O)c5n4C[C@@H]4CCO4)CC3)n2)c(F)c1` [Compound 172, (S)-2-((4-(6-((4-cyano-2-fluorobenzyl)oxy)pyridin-2-yl)piperidin-1-yl)methyl)-7-hydroxy-1-(oxetan-2-ylmethyl)-1H-benzo[d]imidazole-6-carboxylic acid], for which the “GLP-1R Low Expression Cell Assay Emax (%)” value is given as “+ (Emax is <25%)”. In the case of `Cn1c(CN2CCC(c3cccc(OCc4ccc(Cl)cc4F)n3)CC2)nc2c(O[C@H]3C[C@H](F)C3)cc(C(=O)O)cc21` [Compound 353, 2-((4-(6-((4-Chloro-2-fluorobenzyl)oxy)pyridin-2-yl)piperidin-1-yl)methyl)-4-((1r,3r)-3-fluorocyclobutoxy)-1-methyl-1H-benzo[d]imidazole-6-carboxylic acid], the EC50 lay within 10 to 100 nM and the Emax is greater than 85%. On to `Cn1c(CN2CCC(c3cccc(OCc4ccc(Cl)cc4)n3)CC2)nc2c(OC(F)F)cc(C(=O)O)cc21` [Compound 252, 2-((4-(6-((4-Chlorobenzyl)oxy)pyridin-2-yl)piperidin-1-yl)methyl)-4-(difluoromethoxy)-1-methyl-1H-benzo[d]imidazole-6-carboxylic acid], for which the EC50 lay within 10 to 100 nM. `Cn1c(CN2CCC(c3cccc(OCc4ccc(Cl)cc4F)n3)CC2)nc2c(C#N)cc(C(=O)O)cc21` [Compound 189, 2-((4-(6-((4-chloro-2-fluorobenzyl)oxy)pyridin-2-yl)piperidin-1-yl)methyl)-4-cyano-1-methyl-1H-benzo[d]imidazole-6-carboxylic acid] yielded an EC50 of 10 to 100 nM and an Emax greater than 85%. Regarding `Cn1c(CN2CCC(c3cccc(OCc4ccc(Cl)cc4F)n3)CC2)nc2c(OC(F)CF)cc(C(=O)O)cc21` (single isomer, unassigned) [Compound 330], the EC50 lay within 10 to 100 nM and the “GLP-1R Low Expression Cell Assay Emax (%)” value was “++++ (Emax is >85%)”. On to `COc1c(Cl)ccc(COc2cccc(C3CCN(Cc4nc5c(OC(F)F)cc(C(=O)O)cc5n4C)CC3)n2)c1F` [Compound 212, 2-((4-(6-((4-Chloro-2-fluoro-3-methoxybenzyl)oxy)pyridin-2-yl)piperidin-1-yl)methyl)-4-(difluoromethoxy)-1-methyl-1H-benzo[d]imidazole-6-carboxylic acid], for which the concentration for a half-maximal effect (EC50) is 100 to 1000 nM and the maximal effect (Emax) is greater than 85%.

`Cn1c(CN2CCC(n3ccc(OCc4ccc(Cl)cc4F)n3)CC2)nc2c(OC(F)F)cc(C(=O)O)cc21` [Compound 217, 2-((4-(3-((4-Chloro-2-fluorobenzyl)oxy)-1H-pyrazol-1-yl)piperidin-1-yl)methyl)-4-(difluoromethoxy)-1-methyl-1H-benzo[d]imidazole-6-carboxylic acid] gave an EC50 greater than 1000 nM and a maximal response (Emax) greater than 85%. Take `COc1cc(C(=O)O)cc2c1nc(CN1CCC(c3cccc4c3O[C@@H](c3ccc(C#N)cc3F)CO4)CC1)n2Cc1cncs1` [Compound 63, (S)-2-((4-(3-(4-cyano-2-fluorophenyl)-2,3-dihydrobenzo[b][1,4]dioxin-5-yl)piperidin-1-yl)methyl)-4-methoxy-1-(thiazol-5-ylmethyl)-1H-benzo[d]imidazole-6-carboxylic acid]: the 50% effective concentration (EC50) is less than 10 nM.

In general, EC50 refers to the concentration at which the effect is half-maximal. A higher EC50 goes with lower potency in that assay. As a reminder, the Emax is the maximal effect, on the per cent scale that the assay sets.
